According to patent EP2045247B1, “Compounds for the inhibition of histone deacetylase” (NatureWise Biotech & Medicals Corporation, priority 2007, dated 2009):

Columns and labels:
rat C6 glioma cells = assay: Inhibition of growth of rat C6 glioma cells (observation and cell counting); assay type: cell-based; conditions: 2.5, 5 and 10 µg/mL, 48 hours; cell density and cell counting (Fig. 1)
Experimental: The cancer cell line, rat C6 glioma cells, was cultured in Dulbecco's modified Eagle's medium (DMEM; Gibco) supplemented with penicillin G, streptomycin sulphate, 0.5 mM of L-glutamine and 10% fetal bovine serum (FBS; Gibco) at 37 °C, 5% CO2 and 95% relative humidity. For all experiments, the cells were seeded at a density of 3×10^5 per well in 6-well plates. After 24 hours, the cells were treated with different concentrations of the compound NBM-HD-1 (i.e., the compound of formula III depicted herein). After 48 hours, the cells were observed and counted. According to the results shown in Fig. 1, NBM-HD-1 can arrest the growth of rat C6 glioma cells. After the C6 glioma cells were incubated with 2.5 µg/mL (see Fig. 1(A)-b), 5 µg/mL (see Fig. 1(A)-c) and 10 µg/mL (see Fig. 1(A)-d) of NBM-HD-1 for 48 hours, the density of the cells reduced dramatically in comparison with that of control (see Fig. 1(A)-a).

acetylated histone H4 = assay: Western blotting of hyperacetylated histone H4 in C6 glioma cell lysates; assay type: cell-based, rat; conditions: C6 glioma cells
Experimental: Accumulation of hyperacetylated histone H4 was analyzed in the cell lysates by using Western Blotting and the antibody directed against acetylated histone H4 (Upstate). The C6 glioma cells were seeded at a density of 1×10^6 per 10cm culture dish. After 24 hours, the cells were treated with 10 µg/mL of NBM-HD-1 or 4mM sodium butyrate for several hours. The whole-cell lysates were prepared by using denaturing SDS sample buffer and then separated on 15% SDS-polyacrylamide gels. […] The amount of acetylated histones was hardly detectable in untreated C6 glioma cells. The amount of acetylated histone H4 of the cells treated with 4mM sodium butyrate for 2 hours increased. Sodium butyrate was then removed from the culture medium. After 6 hours, the amount of acetylated histone H4 decreased. The accumulation of acetylated histone H4 increased in the cells treated with NBM-HD-1 for 2 hours. […] The highest histone acetylation appeared at 6 hours after the compound had been removed. […] Because NBM-HD-1 is more hydrophobic than sodium butyrate, NBM-HD-1 can be retained in the cells longer than sodium butyrate and continuously induce the acetylation of histone H4.

[1] = tested on: human giloblastoma DBTRG-05MG cancer cells; assay: Inhibition of growth and change of morphology of DBTRG-05MG cells; assay type: cell-based
Experimental: The human giloblastoma DBTRG-05MG cancer cells were cultured in RPMI medium 1640 (Gibco) supplemented with penicillin G, streptomycin sulphate, 0.5 mM of L-glutamine and 10% fetal bovine serum (FBS; Gibco), 100mh/L sodium pyruvate (Gibco), and 1% NEAA (Gibco) at 37 °C, 5% CO2 and 95% relative humidity. For these experiments, the cells were seeded at a density of 3×10^5 per well of 6-well plates. After 24 hours, the cells were treated with different concentrations of NBM-HD-1 and 4 mM sodium butyrate. The cells were observed and counted after 72 hours. […] In 05MG cells (Fig. 7(A)), after incubation with 2.5 µg/mL (Fig. 7(A)-b), 5 µg/mL (Fig. 7(A)-c) and 10 µg/mL (Fig.7(A)-d) of NBM-HD-1 for 72 hours, the density of the cells reduced dramatically in comparison with that of the control group (Fig. 7(A)-a). The 05MG cells in the experimental group also changed to become longer than those in the control group.

[2] = tested on: breast cancer MCF-7 cells; assay: Inhibition of growth and change of morphology of MCF-7 cells; assay type: cell-based, human
Experimental: The breast cancer MCF-7 cells, were cultured in Dulbecco's modified Eagle's medium (DMEM; Gibco) supplemented with penicillin G, streptomycin sulphate, 0.5 mM of L-glutamine and 10% fetal bovine serum (FBS; Gibco) at 37 °C, 5% CO2 and 95% relative humidity. The cells were seeded at a density of 3×10^5 per well of 6-well plates. After 24 hours, the cells were treated with different concentrations of compound NBM-HD-1 and 4mM sodium butyrate being used as the positive control. The cells were observed after 48 hours and counted after 96 hours. […] In Fig. 8(A), after the cells were incubated with 2.5 µg/mL (Fig. 8(A)-b), 5 µg/mL (Fig. 8(A)-c) and 10 µg/mL (Fig. 8(A)-d) of NBM-HD-1 for 48 hours, the density of MCF-7 cells reduced dramatically in comparison with that of the control group (Fig. 8(A)-a). The morphology of the MCF-7 cells in the experimental group changed in comparison with that in the control group. […] The results of the cell counting (FIG. 8(B)) indicate that, similar to sodium butyrate, NBM-HD-1 inhibits cell growth.
MCF-7 cancer cells were seeded at a density of 3×10^5 per well in 6-well plates. After 24 hours, the cells were treated with different concentrations of compound NBM-HD-2 and 4mM sodium butyrate being used as the positive control. The cells were observed and counted after 72 hours. […] In Fig. 13(A), after the cells were incubated with 2.5 µg/mL (Fig. 13(A)-c), 5 µg/mL (Fig. 13(A)-d), 7.5 µg/mL (Fig. 13(A)-e) and 10 µg/mL (Fig. 13(A)-f) of NBM-HD-2 for 72 hours, the density of MCF-7 cells reduced dramatically in comparison with that of the control group (Fig. 13(A)-a). The morphology of the MCF-7 cells in the experimental group changed in comparison with that in the control group.
MCF-7 cancer cells were seeded at a density of 3×10^5 per well of 6-well plates. After 24 hours, the cells were treated with different concentrations of compound NBM-HD-3 and 4mM sodium butyrate, which was being used as the positive control. The cells were observed and counted after 72 hours. […] In Fig. 14(A), after the cells were incubated with 2.5 µg/mL (Fig. 14(A)-c), 5 µg/mL (Fig. 14(A)-d), 7.5 µg/mL (Fig. 14(A)-e) and 10 µg/mL (Fig. 14(A)-f) of NBM-HD-3 for 72 hours, the density of MCF-7 cells reduced dramatically in comparison with that of the control group (Fig. 14(A)-a). The morphology of the MCF-7 cells in the experimental group changed in comparison with that in the control group. […] The results of the cell counting (FIG. 14(B)) indicate that, similar to sodium butyrate, NBM-HD-3 inhibits cell growth.

With `COc1cc2c(c(OC)c1CCC(C)(C)O)C(=O)C[C@@H](c1ccc(OC)c(OC)c1C/C=C(\C)CCCC(C)(C)O)O2` [NBM-HD-1] the “growth of C6 glioma cells” value (rat C6 glioma cells) was “can inhibit the growth of C6 glioma cells in a dose-dependent manner”, the “accumulation of acetylated histone H4, treated for 2 hours” value (acetylated histone H4; 10 µg/mL NBM-HD-1 or 4mM sodium butyrate, 2 hours (Fig. 5)) was “increased” and the “time of highest histone acetylation after the compound had been removed” value (acetylated histone H4; 10 µg/mL, 2 hours treatment, then removal) was 6 h. For the same compound, the “amount of acetylated histone H4 after removal of the compound from the culture medium” value (acetylated histone H4; up to 6 hours after removal (Fig. 5)) was “increased over time”, the “morphology of 05MG cancer cells” value ([1]; 2.5, 5 and 10 µg/mL, 72 hours (Fig. 7(A))) was “change the morphology of 05MG cancer cells” and the “growth of 05MG cells” value ([1]; NBM-HD-1 2.5, 5 and 10 µg/mL, sodium butyrate 4 mM, 72 hours, density and cell counting (Fig. 7)) was “can inhibit the growth of 05MG cells in a dose-dependent manner”. For the same compound, the “morphology of MCF-7 cells” value ([2]; 2.5, 5 and 10 µg/mL, 48 hours (Fig. 8(A))) was “change their morphology” and the “growth of MCF-7 cancer cells” value ([2]; NBM-HD-1 2.5, 5 and 10 µg/mL, sodium butyrate 4mM, observed after 48 hours, counted after 96 hours (Fig. 8)) was “can inhibit the growth of MCF-7 cancer cells in a dose-dependent manner”.
